Assay results published in US20230310531A1, “TRIPTERYGIUM WILFORDII COMPOSITION FOR INHIBITING DRUG-RESISTANT CANCER, AND PREPARATION METHOD AND USE THEREOF” (HUAQIAO UNIVERSITY, priority 2022, published 2023).
Where two headings read alike, the source gives them in different places.

Experiments:
Type in all cases: cell-based, human
A549/DDP cells = assay: MTT cell proliferation inhibition, A549/DDP cells; details: for cell inhibition rate increased, two drugs combined compared with the single drug group: TP 4 μg/ml plus compound (E 1, H 11, I 0.9, J 2, P 20 μg/ml), equal volume ratio; for IC50: compound alone
Experimental: (§1) The cisplatin-resistant cells of non-small cells, lung cancer cells A549 and H1299 and human large cells, lung cancer cells H460 (that is, A549/DDP, H1299/DDP, and H460/DDP), as well as normal human lung bronchial epithelial cells 16HBE were used as cultured cells. All the cells were cultured with a PRMI-1640 complete medium at 37° C. with a CO2 concentration of 5%. Three kinds of cell models were established by culturing the above cells to a certain amount.
(§2) The three kinds of cells in a logarithmic growth phase obtained in step 1 were separately inoculated in a 96-well plate at a density of 5×10^4 cells/mL. 90 μL of the cells were added to each well, and a complete medium as a blank control group, a DMSO negative control, a TP positive control, and experimental groups with different concentrations of compounds were set up. Three replicate wells were set up in each group, and the cells were cultured in a carbon dioxide incubator for 24 h. Drugs were added in a volume of 10 μl to each well, such that final concentrations were 10 μg/ml, 20 μg/ml, 30 μg/ml, 40 μg/ml, and 50 μg/ml. After culturing for 24 h, 48 h, and 72 h, 10 μl of an MTT solution was added to each well. After incubation for 4 h, the medium in each well was aspirated, and 100 μl of DMSO was added. The culture plate was placed in a microplate reader and shaken for 5 min to dissolve crystals. The cells were put into a microplate reader for detection, and a detection wavelength was set to OD=490 nm and a reference wavelength OD=630 nm to measure an absorbance of each well.
(§3) Relative cell viability (%)=((OD value of drug experimental group−OD value of blank control group)/(OD value of negative control group−OD value of blank control group))×100%.
(§4) Relative cell inhibition rate (%)=(1−relative cell viability)×100%.
(§5) The formula for calculating a combination index (CI) was as follows: […]
(§6) In the formula, (Dx)1, (Dx)2, and (Dx)3 represented the drug doses used alone, while (D)1, (D)2, and (D)3 represented the […] contributed by the respective drugs in the combination. […] When CI<1, there was a synergistic effect; when CI>1, there was an antagonistic effect; and when CI=1, there was […].
(§7) A calculation method of IC50 was as follows: SPSS software was used for calculation: after entering the SPSS data editor, the (Variable View) was activated to define variables, and under the variable name (Name), informations were input as follows: “dose/concentration”, “inhibition rate”, “total value”. A parameter Analysis Regression Probit was selected, the “Probit Analysis” dialog box was brought up, the “Dose/Concentration” was selected into the “Covariates” column, the “Inhibition Rate” was selected into the “Response Frequency” column, and the “Total Value” was selected into the “Total Observed” column. In the “Transform” column, “Log base 10” was selected; in the “Mode 1” column, the “Probit” probability unit model was selected; and in the “Options” column, “Calculate from Data” was selected.
When drugs were used in combination, the TP was compatible with any one or any two of the compounds E, H, I, J, and P separately in an equal volume ratio.

H460/DDP cells = assay: MTT cell proliferation inhibition, H460/DDP cells; details: for Combination index (CI): H460/DDP; for IC50: H460/DDP cells
Experimental: as §1, §2, §3, §4, §5, §6, §7
The experimental design, the five compounds, and a method for determining the inhibitory effect on cisplatin-resistant cells H460/DDP were the same as those in Example 1.

H1299/DDP cells = assay: MTT cell proliferation inhibition, H1299/DDP cells; details: for Combination index (CI) / drug effect increased compared with TP alone: H1299/DDP; for drug effect increased compared with TP alone: used in combination with the TP
Experimental: as §1, §2, §3, §4, §5, §6, §7
The experimental design, the five compounds, and a method for determining the inhibitory effect on cisplatin-resistant cells H1229/DDP were the same as those in Example 1.

[1] = A549/DDP, TP 2.5 μg/ml, compound at higher dose (E 2, H 22, I 1.8, J 4, P 40 μg/ml)
[2] = A549/DDP, TP 2.5 μg/ml, compound at lower dose (E 1, H 11, I 0.9, J 2, P 20 μg/ml)
[3] = A549/DDP, TP 5 μg/ml, compound at higher dose (E 2, H 22, I 1.8, J 4, P 40 μg/ml)
[4] = A549/DDP, TP 5 μg/ml, compound at lower dose (E 1, H 11, I 0.9, J 2, P 20 μg/ml)
[5] = Homo sapiens, A549 cells (A549/DDP per FIG. 2 legend), 48 h, read-out: IC50
[6] = 48 h, TP 2.5 μg/ml, compound at higher dose (E 2, H 22, I 1.8, J 4, P 40 μg/ml)
[7] = 48 h, TP 2.5 μg/ml, compound at lower dose (E 1, H 11, I 0.9, J 2, P 20 μg/ml)
[8] = 48 h, TP 5 μg/ml, compound at higher dose (E 2, H 22, I 1.8, J 4, P 40 μg/ml)
[9] = 48 h, TP 5 μg/ml, compound at lower dose (E 1, H 11, I 0.9, J 2, P 20 μg/ml)
[10] = Homo sapiens, NCI-H460, 48 h, compound alone (FIGS. 1A-R), read-out: IC50
[11] = Homo sapiens, NCI-H1299, H1299/DDP, in combination with TP 2.5 μg/ml, read-out: IC50 concentrations doses
[12] = Homo sapiens, NCI-H1299, H1299/DDP, in combination with TP 5 μg/ml, read-out: IC50 concentrations doses
[13] = 48 h, compound alone (FIGS. 1A-R)

## CC(C)c1ccc2c(c1)C(=O)C[C@H]1[C@@](C)(CO)[C@@H](O)CC[C@]21C [Compound J, (3S,4S,5R,10S)-3,19-dihydroxy-7-ox-oabieta-8,11,13-triene]
A549/DDP cells; A549/DDP, 48 h
  cell inhibition rate increased, two drugs combined compared with the single drug group: 1.58 times
A549/DDP cells; A549/DDP, combination with TP
  inhibition rate of combination with TP, times higher than TP alone: 1.32 times
A549/DDP cells; [1]
  Combination index (CI): 0.9025
A549/DDP cells; [2]
  Combination index (CI): 0.9333
A549/DDP cells; [3]
  Combination index (CI): 0.9982
A549/DDP cells; [4]
  Combination index (CI): 0.6952
A549/DDP cells; [5]
  IC50: 6.92 µg/mL
H460/DDP cells; [6]
  Combination index (CI): 0.3260
H460/DDP cells; [7]
  Combination index (CI): 0.5384
H460/DDP cells; [8]
  Combination index (CI): 0.3064
H460/DDP cells; [9]
  Combination index (CI): 0.6519
H460/DDP cells; [10]
  IC50: 4.32 µg/mL
H460/DDP cells; Homo sapiens, NCI-H460, 48 h, compound alone (FIGS. 7A-E), read-out: IC50
  IC50: 0.61 µg/mL
H1299/DDP cells; [6]
  Combination index (CI): 0.9855
H1299/DDP cells; [7]
  Combination index (CI): 0.6741
H1299/DDP cells; [8]
  Combination index (CI): 0.5884
H1299/DDP cells; [9]
  Combination index (CI): 0.6735
H1299/DDP cells; [11]
  IC50: 1.84 µg/mL
H1299/DDP cells; [12]
  IC50: 0.9 µg/mL

## CC(C)[C@]12O[C@H]1[C@@H]1O[C@]13[C@]1(O[C@H]1C[C@H]1C4=C(CC[C@@]13C)C(=O)OC4)[C@@H]2O [TP, triptolide, reference compound]
A549/DDP cells; Homo sapiens, A549/DDP, A549DDP cells, read-out: IC50 value of A549DDP cells used as a synergistic dose
  IC50: 7.83 µg/mL
H460/DDP cells; [10]
  IC50: 1.97 µg/mL

## C[C@@]1(C(=O)O)CC[C@]2(C)CC[C@]3(C)C4=CC(=O)c5c(cc(O)c(O)c5C=O)[C@]4(C)CC[C@@]3(C)[C@@H]2C1 [Compound H, Demethylzeylasteral]
A549/DDP cells; A549/DDP, 48 h
  cell inhibition rate increased, two drugs combined compared with the single drug group: 1.54 times
A549/DDP cells; [1]
  Combination index (CI): 0.7225
A549/DDP cells; [2]
  Combination index (CI): 0.8749
A549/DDP cells; [3]
  Combination index (CI): 0.7206
A549/DDP cells; [4]
  Combination index (CI): 1.1462
H460/DDP cells; [13]
  IC50: 22.31 µg/mL
H460/DDP cells; [6]
  Combination index (CI): 0.5569
H460/DDP cells; [7]
  Combination index (CI): 0.7051
H460/DDP cells; [8]
  Combination index (CI): 0.4270
H460/DDP cells; [9]
  Combination index (CI): 0.6318
H1299/DDP cells; [6]
  Combination index (CI): 0.9651
H1299/DDP cells; [7]
  Combination index (CI): 0.8151
H1299/DDP cells; [8]
  Combination index (CI): 0.8689
H1299/DDP cells
  drug effect increased compared with TP alone: 2.12 times

## CC(C)c1ccc2c(c1O)CC[C@H]1C(C)(C)[C@@H](O)CC[C@]21C [Compound P, Triptobenzene B]
A549/DDP cells; A549/DDP, 48 h
  cell inhibition rate increased, two drugs combined compared with the single drug group: 1.34 times
A549/DDP cells; [1]
  Combination index (CI): 1.2660
A549/DDP cells; [2]
  Combination index (CI): 1.0764
A549/DDP cells; [3]
  Combination index (CI): 1.4985
A549/DDP cells; [4]
  Combination index (CI): 1.1918
A549/DDP cells; [5]
  IC50: 6.72 µg/mL
H460/DDP cells; [6]
  Combination index (CI): 0.1961
H460/DDP cells; [7]
  Combination index (CI): 0.2435
H460/DDP cells; [8]
  Combination index (CI): 0.2976
H460/DDP cells; [9]
  Combination index (CI): 0.3777
H460/DDP cells; [10]
  IC50: 39.2 µg/mL
H1299/DDP cells; [6]
  Combination index (CI): 1.1079
H1299/DDP cells; [7]
  Combination index (CI): 1.7041
H1299/DDP cells; [8]
  Combination index (CI): 0.9326
H1299/DDP cells; [9]
  Combination index (CI): 0.6521
H1299/DDP cells; Homo sapiens, NCI-H1299, 48 h, H1299/DDP cells, 48 h, compound alone (FIGS. 5A-E), read-out: IC50
  IC50: 12.8 µg/mL
H1299/DDP cells; [11]
  IC50: 12 µg/mL
H1299/DDP cells; [12]
  IC50: 11 µg/mL

## CC(C)c1ccc2c(c1)CCC1C(C)(CO)C(=O)CCC21C (stereo not shown) [Compound I, Triptobenzene R]
A549/DDP cells; A549/DDP, 48 h, compound alone (FIGS. 3A-E)
  inhibitory effect compared with TP: better inhibitory effect on cells than that of the TP
A549/DDP cells; A549/DDP, 48 h
  cell inhibition rate increased, two drugs combined compared with the single drug group: 1.81 times
A549/DDP cells; [1]
  Combination index (CI): 0.8583
A549/DDP cells; [2]
  Combination index (CI): 1.3864
A549/DDP cells; [3]
  Combination index (CI): 0.8288
A549/DDP cells; [4]
  Combination index (CI): 0.8316
H460/DDP cells; [13]
  IC50: 1.893 µg/mL
H460/DDP cells; [6]
  Combination index (CI): 1.2499
H460/DDP cells; [7]
  Combination index (CI): 1.1241
H460/DDP cells; [8]
  Combination index (CI): 0.7619
H460/DDP cells; [9]
  Combination index (CI): 0.9327
H1299/DDP cells; [6]
  Combination index (CI): 1.1259
H1299/DDP cells; [7]
  Combination index (CI): 0.7373
H1299/DDP cells; [8]
  Combination index (CI): 1.1503
H1299/DDP cells; [9]
  Combination index (CI): 0.8353
H1299/DDP cells; H1299 cells (H1299/DDP per FIG. 2 legend), 48 h, compound alone
  IC50: 8.61 µg/mL

## CC(=O)OCC12C(OC(=O)C=Cc3ccccc3)CCC(C)(O)C13OC(C)(C)C(C(OC(C)=O)C2OC(=O)c1cccnc1)C3OC(C)=O (stereo not drawn) [Compound E, 1β-(E-cinnamoyloxy)-4a-hydroxy-5a,7β,11-triacetoxy-8β-nicotinoyloxy-dihydroagarofuran]
A549/DDP cells; A549/DDP, 48 h
  cell inhibition rate increased, two drugs combined compared with the single drug group: 2.01 times
A549/DDP cells; [1]
  Combination index (CI): 1.1269
A549/DDP cells; [2]
  Combination index (CI): 0.8986
A549/DDP cells; [3]
  Combination index (CI): 1.1213
A549/DDP cells; [4]
  Combination index (CI): 0.8688
A549/DDP cells; A549 cells (A549/DDP per FIG. 2 legend), 48 h
  IC50: 5.03 µg/mL
H460/DDP cells; [13]
  IC50: 1.98 µg/mL
H460/DDP cells; 48 h, compound alone (FIGS. 7A-E)
  IC50: 0.58 µg/mL
H460/DDP cells; [6]
  Combination index (CI): 0.6604
H460/DDP cells; [7]
  Combination index (CI): 1.4669
H460/DDP cells; [8]
  Combination index (CI): 0.5008
H460/DDP cells; [9]
  Combination index (CI): 1.1134
H1299/DDP cells; [6]
  Combination index (CI): 1.1646
H1299/DDP cells; [7]
  Combination index (CI): 0.7473
H1299/DDP cells; [8]
  Combination index (CI): 0.8025
H1299/DDP cells
  drug effect increased compared with TP alone: 2.15 times
